Experimental findings from patent US7163946B2 (Ligand Pharmaceuticals Incorporated, priority 2002, dated 2007) are described below.

Assay type in all cases: cell-based
Test [1] addresses T1, hPR (Homo sapiens, UniProt P06401).
T1 sequence (P06401 1-933): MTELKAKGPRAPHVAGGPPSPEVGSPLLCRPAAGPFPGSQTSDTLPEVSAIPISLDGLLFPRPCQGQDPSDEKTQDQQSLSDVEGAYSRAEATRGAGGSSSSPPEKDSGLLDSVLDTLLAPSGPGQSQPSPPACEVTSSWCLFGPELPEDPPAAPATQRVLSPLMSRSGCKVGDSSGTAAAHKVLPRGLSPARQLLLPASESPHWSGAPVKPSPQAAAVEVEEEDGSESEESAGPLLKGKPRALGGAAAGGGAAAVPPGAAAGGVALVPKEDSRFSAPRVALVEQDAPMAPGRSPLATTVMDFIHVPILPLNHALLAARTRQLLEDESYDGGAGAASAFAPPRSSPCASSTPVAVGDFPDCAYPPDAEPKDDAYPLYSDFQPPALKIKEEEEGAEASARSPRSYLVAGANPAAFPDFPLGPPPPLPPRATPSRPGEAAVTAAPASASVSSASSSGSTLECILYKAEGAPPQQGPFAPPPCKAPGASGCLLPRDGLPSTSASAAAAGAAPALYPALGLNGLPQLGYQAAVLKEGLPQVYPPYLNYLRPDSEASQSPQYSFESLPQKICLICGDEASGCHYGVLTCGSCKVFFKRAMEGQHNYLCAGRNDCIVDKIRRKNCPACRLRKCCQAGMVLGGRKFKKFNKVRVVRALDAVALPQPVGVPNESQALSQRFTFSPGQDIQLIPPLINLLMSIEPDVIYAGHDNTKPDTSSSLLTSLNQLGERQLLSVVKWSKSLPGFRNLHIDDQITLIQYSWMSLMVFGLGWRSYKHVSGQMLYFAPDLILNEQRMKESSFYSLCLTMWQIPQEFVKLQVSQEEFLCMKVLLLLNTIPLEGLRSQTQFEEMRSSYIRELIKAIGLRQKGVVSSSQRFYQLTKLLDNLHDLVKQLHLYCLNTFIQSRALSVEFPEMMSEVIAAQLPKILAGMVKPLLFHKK
Nature of the test: hPR cotransfection assay in CV-1 cells, antagonist mode. The settings on record: for Emax: CV-1, CV-1 cells, maximal inhibition of reference agonist at EC50 concentration, read-out: hPR Antagonist CV-1 Cells Eff. (%); for pIC50: CV-1 cells.
Procedure: (§1) Antagonist efficacy was determined as a function (%) of maximal inhibition of a reference agonist at EC50 concentration. All the cotransfection experiments were carried out in 96-well plates by automation (Beckman Biomomek automated workstation).

Test [2] deals with T2, hPR (Homo sapiens, UniProt P06401).
T2 sequence (P06401 679-933 limits assumed): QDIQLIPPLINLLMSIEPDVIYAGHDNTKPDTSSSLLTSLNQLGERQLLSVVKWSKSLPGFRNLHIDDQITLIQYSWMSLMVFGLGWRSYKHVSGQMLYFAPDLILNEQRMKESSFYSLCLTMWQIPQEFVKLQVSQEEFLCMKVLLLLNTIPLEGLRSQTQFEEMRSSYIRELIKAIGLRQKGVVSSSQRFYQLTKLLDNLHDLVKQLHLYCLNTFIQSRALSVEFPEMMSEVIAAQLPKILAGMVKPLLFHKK
Put plainly: T47D alkaline phosphatase assay, agonist mode. The settings on record: T47D human breast cancer cells; for Emax: T47D, read-out: hPR Agonist T47D cells Eff. (%).
Source text: (§2) The potential tissue-selectivities of the selected analogues were examined by using the T47D alkaline phosphatase assay that was developed from human breast cancer cells with endogenous PRs.

For test [3], the target named is T2, hPR. Put plainly: T47D alkaline phosphatase assay, antagonist mode. The settings on record: T47D human breast cancer cells; for Emax: read-out: hPR Antagonists T47D Cells Eff. (%); for pIC50: read-out: hPR Antagonists T47D Cells IC50.
Source text: as §2
The target in test [4] is T3, human mineralocorticoid receptor (hMR) (Homo sapiens, UniProt P08235).
T3 sequence (P08235 1-984): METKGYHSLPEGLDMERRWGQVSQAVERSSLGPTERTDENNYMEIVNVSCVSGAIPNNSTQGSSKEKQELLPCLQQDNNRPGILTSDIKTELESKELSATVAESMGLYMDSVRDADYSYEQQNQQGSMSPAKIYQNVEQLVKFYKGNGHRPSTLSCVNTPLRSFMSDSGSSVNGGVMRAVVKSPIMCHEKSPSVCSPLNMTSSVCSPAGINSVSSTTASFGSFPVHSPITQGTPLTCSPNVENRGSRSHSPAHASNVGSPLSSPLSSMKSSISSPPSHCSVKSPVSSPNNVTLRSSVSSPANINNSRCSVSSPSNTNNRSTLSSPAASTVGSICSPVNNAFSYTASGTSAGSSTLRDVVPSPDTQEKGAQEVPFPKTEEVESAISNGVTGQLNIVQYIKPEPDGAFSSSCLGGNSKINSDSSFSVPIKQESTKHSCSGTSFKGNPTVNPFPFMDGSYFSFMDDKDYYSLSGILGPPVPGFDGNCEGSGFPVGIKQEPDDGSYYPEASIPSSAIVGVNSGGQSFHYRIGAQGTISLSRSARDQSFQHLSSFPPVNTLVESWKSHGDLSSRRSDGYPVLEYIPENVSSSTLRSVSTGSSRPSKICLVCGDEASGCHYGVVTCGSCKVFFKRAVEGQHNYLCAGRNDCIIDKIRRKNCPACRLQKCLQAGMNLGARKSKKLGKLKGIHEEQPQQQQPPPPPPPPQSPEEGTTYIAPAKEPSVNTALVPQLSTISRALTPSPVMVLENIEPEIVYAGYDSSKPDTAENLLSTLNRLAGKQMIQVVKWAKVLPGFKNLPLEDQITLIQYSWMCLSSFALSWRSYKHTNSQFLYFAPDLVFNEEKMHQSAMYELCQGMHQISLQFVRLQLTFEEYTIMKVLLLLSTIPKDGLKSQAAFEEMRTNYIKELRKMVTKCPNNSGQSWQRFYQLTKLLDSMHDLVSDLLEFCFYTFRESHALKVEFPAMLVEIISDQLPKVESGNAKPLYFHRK
Nature of the test: hMR cotransfection assay (potency ratio to hPR). The settings on record: receptor-selectivity potency ratio, cotransfection assays.
Procedure: as §1

pEC50, pIC50: −log10 of the molar value. Where only a bound is given, the exact number is not on record here.

In general, pIC50 refers to −log10 of the IC50, conventionally taken in molar units. As a reminder, the pEC50 is −log10 of the EC50, conventionally taken in molar units. Regarding `CC1=CC(C)(C)Nc2ccc3c(c21)/C(=C/c1cccc(F)c1)Oc1c(F)cc(F)cc1-3` [Compound 15, 7,9-difluoro-5(Z)-(3-fluorobenzylidene)-1,2-dihydro-2,2,4-trimethyl-5H-chromeno[3,4-f]quinoline], at hPR [1], the Emax was under 20% and the pIC50 was under 5.00. Moreover, on hPR [2], the pEC50 was 7.72 and the Emax was found to be 56%. Further, at hPR [3], the Emax amounted to 52% and the pIC50 was 6.15. For the same molecule, in test [4], the “hMR EC50 or IC50/hPR EC50” value is over 1000.
Turning to `COc1ccc(F)cc1/C=C1\Oc2c(F)cc(F)cc2-c2ccc3c(c21)C(C)=CC(C)(C)N3` [Compound 26, 7,9-difluoro-5(Z)-(2-methoxy-5-fluorobenzylidene)-1,2-dihydro-2,2,4-trimethyl-5H-chromeno[3,4-f]quinoline], on hPR [1], the Emax is under 20% and the pIC50 was under 5.00. Further, at hPR [2], the pEC50 is 8.12 and the Emax came to 63%. In addition, at hPR [3], the Emax turned out to be 46% and the pIC50 was 6.21. In test [4], the “hMR EC50 or IC50/hPR EC50” value was over 1000.
With `CC1=CC(C)(C)Nc2ccc3c(c21)/C(=C/c1ccncc1C)Oc1c(F)cc(F)cc1-3` [Compound 20, 7,9-difluoro-5(Z)-(3-methyl-4-picolylidene)-1,2-dihydro-2,2,4-trimethyl-5H-chromeno[3,4-f]quinoline], the Emax was under 20% on hPR [1], 63% on hPR [2] and 59% at hPR [3]. Also, the pIC50 against hPR [1] was under 5.00; on hPR [3] it was 6.77. At hPR [2], this molecule had a negative-log EC50 (pEC50) of 8.18. The “hMR EC50 or IC50/hPR EC50” value in test [4] is over 1000.
For `CC1=CC(C)(C)Nc2ccc3c(c21)/C(=C/c1ccncc1)Oc1c(F)cc(F)cc1-3` [Compound 14, 7,9-difluoro-5(Z)-(4-picolylidene)-1,2-dihydro-2,2,4-trimethyl-5H-chromeno[3,4-f]quinoline], at hPR [1], the Emax is under 20% and the pIC50 is under 5.00. Moreover, at hPR [2], the pEC50 was 7.31 and the Emax is 58%. Also, at hPR [3], the Emax came out at 44% and the pIC50 is 6.94. Besides, the “hMR EC50 or IC50/hPR EC50” value in test [4] is recorded as over 1000.
In the case of `CC1=CC(C)(C)Nc2ccc3c(c21)/C(=C/c1cc(F)ccc1C)Oc1c(F)cc(F)cc1-3` [Compound 19, 7,9-difluoro-5(Z)-(2-methyl-5-fluorobenzylidene)-1,2-dihydro-2,2,4-trimethyl-5H-chromeno[3,4-f]quinoline], the Emax on hPR [1] was under 20%; on hPR [2], 65%; on hPR [3], 35%. In addition, the pIC50 was under 5.00 against hPR [1] and 6.44 at hPR [3]. In addition, at hPR [2], the pEC50 is 8.06. In addition, the “hMR EC50 or IC50/hPR EC50” value in test [4] is over 1000.
In the case of `CC#CC1Oc2c(F)cc(F)cc2-c2ccc3c(c21)C(C)=CC(C)(C)N3` (racemic) [Compound 74, (±)-7,9-difluoro-5-(1-propynyl)-1,2-dihydro-2,2,4-trimethyl-5H-chromeno[3,4-f]quinoline], on hPR [1], the Emax was under 20% and the pIC50 was under 5.00. In addition, on hPR [2], the pEC50 is 8.34 and the Emax came to 58%. In addition, on hPR [3], the Emax worked out at 40% and the pIC50 is 7.28. In addition, in test [4], the “hMR EC50 or IC50/hPR EC50” value is over 1000.
Consider `CC1=CC(C)(C)Nc2ccc3c(c21)C(c1cccc(C)c1)Oc1c(F)cc(F)cc1-3` (racemic) [Compound 34, (±)-7,9-difluoro-5-(3-methylphenyl)-1,2-dihydro-2,2,4-trimethyl-5H-chromeno[3,4-f]quinoline], for which, on hPR [1], the Emax is under 20% and the pIC50 was under 5.00. Also, at hPR [2], the pEC50 is 7.47 and the Emax was 60%. Moreover, on hPR [3], the Emax was determined as 47% and the negative logarithm of the IC50 (pIC50) is 6.25. Besides, the “hMR EC50 or IC50/hPR EC50” value in test [4] is over 1000.
Consider `COc1ccccc1/C=C1\Oc2c(F)cc(F)cc2-c2ccc3c(c21)C(C)=CC(C)(C)N3` [Compound 18, 7,9-difluoro-5(Z)-(2-methoxybenzylidene)-1,2-dihydro-2,2,4-trimethyl-5H-chromeno[3,4-f]quinoline], for which the Emax is under 20% at hPR [1], 57% on hPR [2] and 58% on hPR [3]. Also, the values for the pIC50 against hPR [1] and at hPR [3] were under 5.00 and 7.26, respectively. This molecule had a pEC50 at hPR [2] of 7.77. Also, the “hMR EC50 or IC50/hPR EC50” value in test [4] was over 1000.
For `CC1=CC(C)(C)Nc2ccc3c(c21)/C(=C/c1cccs1)Oc1c(F)cc(F)cc1-3` [Compound 31, 7,9-difluoro-5(Z)-(2-thienylmethylidene)-1,2-dihydro-2,2,4-trimethyl-5H-chromeno[3,4-f]quinoline], at hPR [1], the Emax is under 20% and the negative logarithm of the IC50 (pIC50) is under 5.00. Besides, on hPR [2], the pEC50 is 7.85 and the Emax is 66%. Besides, on hPR [3], the Emax amounted to 39% and the negative logarithm of the IC50 (pIC50) was 6.21. The “hMR EC50 or IC50/hPR EC50” value in test [4] is over 1000.
Turning to `CC1=CC(C)(C)Nc2ccc3c(c21)/C(=C/c1ccsc1)Oc1c(F)cc(F)cc1-3` [Compound 30, 7,9-difluoro-5(Z)-(3-thienylmethylidene)-1,2-dihydro-2,2,4-trimethyl-5H-chromeno[3,4-f]quinoline], at hPR [1], the Emax was under 20% and the pIC50 is under 5.00. Moreover, at hPR [2], the pEC50 is 7.48 and the Emax stood at 66%. For the same molecule, on hPR [3], the Emax is 44% and the pIC50 was 6.08. Besides, the “hMR EC50 or IC50/hPR EC50” value in test [4] was over 1000.
